Laboratory results published in patent publication US20240197744A1, “TREATING SEX STEROID DEPENDENT CANCER WITH BMX INHIBITORS” (The Cleveland Clinic Foundation, priority 2021, published 2024).

Columns and labels:
VCaP xenografts = test: VCaP xenograft in eugonadal mice; format: in vivo; conditions: VCaP xenograft tumors
Method: (§1) Total RNA was extracted with GenElute Mammalian Total RNA miniprep kit (Sigma-Aldrich), and 1 μg RNA was reverse-transcribed to complementary DNA (cDNA) with the iScript cDNA Synthesis Kit (Bio-Rad). An ABI 7500 Real-Time PCR instrument (Applied Biosystems) was used to perform quantitative PCR (qPCR) analysis, using iTaq Fast SYBR Green Supermix with ROX (Bio-Rad) in 96-well plates at a final reaction volume of 10 μl. The qPCR analysis was carried out in triplicate with the following primer sets:
(§2) All mouse studies were performed under a protocol approved by the Institutional Animal Care and Use Committee of the Cleveland Clinic Lerner Research Institute. […]
(§3) To evaluate whether zanubrutinib suppresses tumor growth, 6 million C4-2 or 10 million VCaP cells (100 μl in 50% Matrigel and 50% growth media) were subcutaneously injected into mice. […] Tumor volume and progression-free survival were determined as described above. […] The number of mice in each group was determined by those that survived surgical procedures and had reached the 200 mm^3 tumor volume required to initiate treatment. Tumor diameters were measured by digital calipers three times per week and fresh frozen upon mouse sacrifice.
(§4) Androgens in xenografts were assessed by liquid chromatography tandem mass spectrometry as reported previously with slight modifications (Li et al., 2021; Zhu et al., 2018). […]

C4-2 xenografts = test: C4-2 xenograft in eugonadal mice; format: in vivo; conditions: C4-2 xenograft tumors
Method: as §1, §2, §3, §4

C=CC(=O)N1CCC([C@@H]2CCNc3c(C(N)=O)c(-c4ccc(Oc5ccccc5)cc4)nn32)CC1 [zanubrutinib, Zanubrutinib]
no significant effect: tumor testosterone by mass spectrometry (VCaP xenografts) | AR target gene expression (VCaP xenografts; qPCR) | tumor testosterone by mass spectrometry (C4-2 xenografts) | AR target gene expression (C4-2 xenografts; qPCR)
